From article PMC9495004, “In Vitro Biological Activity of Natural Products from the Endophytic Fungus Paraboeremia selaginellae against Toxoplasma gondii” (Antibiotics, 2022)
Converted amounts (≈) assume the structure as drawn. Read-outs that look alike come from different tables or passages of the source.

Tests used:
[1] = test system: HEK293 (human embryonic kidney cell line); experiment: Resazurin cytotoxicity assay, HEK-293; assay type: cell-based; conditions: for IC50: Homo sapiens, read-out: Mean IC50 HEK-293
Protocol: (§1) Figure 5 Effect of the natural products on the viability of THP-1, Huh-7, and HEK-293 cells. Cytotoxic effect of NK-A17e233 (A); 1,2-benzenediol,3-(4-hydroxy-2-methoxy-6-methylphenoxy)-5-methyl-(ACI) (B); cyperin (C); ES-242-1 (D); ES-242-3 (E); 5S,6S-phomalactone (F) against the human cell lines THP-1, Huh-7, and HEK-293 as determined by resazurin assay. 100% growth control DMSO, 0% growth control cycloheximide. Values represent the means of triplicates ± SEM.
(§2) The cytotoxicity study was carried out using the THP-1 (human monocytic leukemia cell line), Huh-7 (Human liver carcinoma cell line), and HEK293 (human embryonic kidney cell line) cell lines as described before. The THP-1 cells were cultured using RPMI 1640 medium containing 2 mM L-glutamine and supplemented with 10% fetal calf serum (FCS) and 1% sodium pyruvate. Huh-7 cells were cultured using a 1:1 mixture of RPMI 1640 medium containing 2 mM L-glutamine and 10% FCS medium and DMEM containing 10% FCS and 1% sodium pyruvate. The HEK-293 cells were cultured with DMEM including 2 mM L-glutamine and supplemented with 1% NE amino acids, 1% 1.0 mM sodium pyruvate and 10% FCS. All three cell lines were then incubated at 37 °C in an atmosphere of 5% CO2 under humid conditions for 2 weeks while renewing the medium twice weekly. Subsequently, the cells were suspended and adjusted to a density of 2 × 10^5 cells/mL. In a 96-well flat-bottom microtiter plate, the cells were adjusted to a total volume of 100 μL containing 2-fold serial dilutions of the tested compounds A–F ranging from 100 to 1.56 μM. Cycloheximide (4, 2, 1, 0.5, 0.25, 0.13, 0.06, 0.03 µg/mL) was used as a positive control. After an incubation time of 48 h at 37 °C in an atmosphere of 5% CO2 under humid conditions, 10 μL resazurin solution (100 μg/mL) was added to each well and incubated for another 4 h. The fluorescence was then quantified using a Tecan Infinite 200pro microplate reader (excitation 540 nm, emission 590 nm). The residual growth was calculated relative to non-inoculated conditions (0% growth) and controls treated with DMSO (100% growth).

[2] = test system: Huh-7 (Human liver carcinoma cell line); experiment: Resazurin cytotoxicity assay, Huh-7; assay type: cell-based; conditions: for IC50: Homo sapiens, read-out: Mean IC50 Huh-7
Protocol: as §1, §2

[3] = test system: M. tuberculosis H37Rv; experiment: Minimal inhibitory concentration, resazurin reduction assay, M. tuberculosis; assay type: cell-based, Mycobacterium tuberculosis; conditions: for MIC90: Mycobacterium tuberculosis, H37RV, 120 h, read-out: MIC90 M. tuberculosis H37Rv
[4] = MTT cell viability assay against Hs27 cells; assay type: cell-based; conditions: human, Hs27 fibroblast cells, >100 µM indicates no activity, read-out: CC50 against human fibroblasts Hs27
Protocol: Figure 4 Effect of the natural products on the metabolic activity of Hs27 cells via MTT assay. Hs27 cells were plated in 96-well plates and grown to confluence prior to incubation at 37 °C for 24 h with the natural products in the concentration range of […]. The cultures were incubated with 10 μL of the 12 mM MTT stock solution for approximately 4 h. Afterwards, 100 μL of SDS dissolved in HCl was added to each well and incubated again for 4 h at 37 °C. Finally, the absorbance was measured at 570 nm by spectrophotometry. Values shown in (A–F) represent the means of three independent experiments each done in duplicate (n = 6) ± SEM. Cytotoxicity in Hs27 cells of NK-A 17e233 (A); 1,2-benzenediol, 3-(4-hydroxy-2-methoxy-6-methylphenoxy)-5-methyl-(ACI) (B); cyperin (C); ES-242-1 (D); ES-242-3 (E); 5S,6S-phomalactone (F).
The 3-[4,5-dimethylthiazole-2-yl]-2,5-diphenyltetrazolium bromide (MTT) test was used to assess cell viability of the isolated active compounds against Hs27 cells. The MTT assay is a colorimetric reaction based on the enzymatic reduction of MTT to MTT-formazan, which is catalyzed by mitochondrial succinate dehydrogenase.
In brief, Hs27 cells were seeded 96-well plates in a monolayer in Iscove’s modified Dulbecco’s medium (Gibco–Thermo Fisher Scientific, Braunschweig, Germany) and incubated at 37 °C with different concentrations of the tested natural products (1.56, 3,12, 6.25, 12,5, 25, 50, 100 µM) in the culture media. Staurosporine ([…], 0.25, 0.5, 1 µM), a well-known cytotoxicity-inducing kinase inhibitor [40], untreated Hs27 cells, and DMSO were used as controls. After 24 h, the medium of the culture was removed and replaced with 100 μL of DMEM without red phenol (Gibco–Thermo Fisher Scientific, Braunschweig, Germany) plus 10% heat-inactivated fetal bovine serum (Invitrogen, Karlsruhe, Germany), and […] 2-mercaptoethanol (Gibco–Thermo Fisher Scientific, Braunschweig, Germany). Afterwards, the 12 mM MTT solution was added to each well according to the manufacturer’s instruction (Vybrant MTT Cell Proliferation Assay Kit, Thermo Fisher Scientific, Braunschweig, Germany). The OD value of each well was assayed at the wavelength of 570 nm on a microplate reader (TECAN Sunrise, Männedorf, Switzerland). The 50% cytotoxic concentration (CC50 values) of the tested natural products on Hs27 cells was calculated and all data were analyzed using Prism GraphPad version 9.2.0 software.

[5] = test system: S. aureus ATCC 700699; experiment: Minimal inhibitory concentration assay (BacTiter Glo), S. aureus; assay type: cell-based; conditions: Staphylococcus aureus, read-out: MIC90 S. aureus ATCC 700699
[6] = test system: P. aeruginosa ATCC 87110; experiment: Minimal inhibitory concentration assay (BacTiter Glo), P. aeruginosa; assay type: cell-based; conditions: Pseudomonas aeruginosa, read-out: MIC90 P. aeruginosa ATCC 87110
[7] = test system: THP-1 (human monocytic leukemia cell line); experiment: Resazurin cytotoxicity assay, THP-1; assay type: cell-based; conditions: for IC50: Homo sapiens, read-out: Mean IC50 THP1
Protocol: as §1, §2

[8] = test system: T. gondii strain ME49; experiment: T. gondii proliferation assay (3H-uracil incorporation); assay type: cell-based, Toxoplasma gondii
[9] = test system: Plasmodium falciparum; conditions: cited from earlier work
[10] = 5 days, resazurin, >100 µM indicates no activity
[11] = Toxoplasma gondii, HS27, read-out: IC50 against T. gondii strain ME49 (proliferation)
[12] = ATCC700699, 24 h, >100 µM indicates no activity
[13] = ATCC87110, 24 h, >100 µM indicates no activity
[14] = Hs27 host cells, 48 h treatment, 3H-uracil incorporation
[15] = HEK293, resazurin assay, 48 h, >100 µM indicates no activity
[16] = resazurin assay, 48 h, >100 µM indicates no activity
[17] = Huh-7, resazurin assay, 48 h, >100 µM indicates no activity
[18] = THP-1, resazurin assay, 48 h, >100 µM indicates no activity
[19] = reported activity, read-out: IC50 against P. falciparum
[20] = Toxoplasma gondii, HS27, Hs27 host cells, 48 h treatment, 3H-uracil incorporation, read-out: IC50 against T. gondii strain ME49 (proliferation)

Row | SMILES | MIC90 M. tuberculosis H37Rv [3, 10] | CC50 at 24 h [4] [µM] | IC50 [8, 11] [µM] | MIC90 [3, 10] [µM] | MIC90 [5, 12] [µM] | MIC90 [6, 13] [µM] | IC50 [1, 15] [µM] | IC50 [2, 17] [µM] | IC50 [7, 18] [µM] | IC50 [8, 20] [µM] | further results
1 | COc1cc(C)c(Oc2cc(C)cc(O)c2)c(O)c1 [Compound C, cyperin] | no inhibitory effect | > 100 | 27.2 | – | – | – | – | – | – | – | IC50 ([1]; HEK293, 48 h): > 100 µM; IC50 ([2]; Huh-7, 48 h): > 100 µM; MIC90 [3]: > 100 µM; MIC90 ([5]; ATCC700699, 24 h): > 100 µM; MIC90 ([6]; ATCC87110, 24 h): > 100 µM; IC50 ([7]; THP-1, 48 h): > 100 µM
2 | CCC(C)CC(C)/C=C(C)/C=C/CC(C)C(O)C(C)/C=C(C)/C=C/C(O)C(C)(C)c1cc(O)c([C@H]2O[C@@H](CO)C[C@@H](O)[C@@H]2O)c(=O)o1 (stereo partly shown) [H, S 39163/F-1] | no inhibitory effect | – | – | > 100 | > 100 | > 100 | – | – | – | – | IC50 against T. gondii strain ME49 (proliferation) [8, 14]: Not active
3 | C/C=C/[C@@H]1OC(=O)C=C[C@@H]1O [F, 5S,6S-phomalactone] | no inhibitory effect | 81 | 5.13 | – | > 100 | 100 (≈ 15.4 µg/mL) | 66.9 | 100 | 24.3 | – | Mean IC50 HEK-293 [1, 16]: no or weak cytotoxic effects; Mean IC50 Huh-7 [2, 16]: no or weak cytotoxic effects; MIC90 [3]: > 100 µM; IC50 ([9]; previous report, read-out: IC50 against Plasmodium falciparum): 84.3 µM
4 | Cc1cc(O)c(C)c(=O)o1 [G, methyltriaceticlactone] | no inhibitory effect | – | – | > 100 | > 100 | > 100 | – | – | – | – | IC50 against T. gondii strain ME49 (proliferation) [8, 14]: Not active
5 | COc1cc(OC)c2c(O)c3c(c(-c4c5c(c(O)c6c(OC)cc(OC)cc46)CO[C@@H](C)[C@H]5OC(C)=O)c2c1)C[C@@H](C)OC3 [D, ES-242-1] | – | > 100 | – | 50 (≈ 30.2 µg/mL) | > 100 | > 100 | 93.8 | > 100 | > 100 | 7.38 | IC50 [9, 19]: 8.44 µM
6 | COc1cc(O)cc(C)c1Oc1cc(C)cc(O)c1O [B, 3-(4-Hydroxy-2-methoxy-6-methylphenoxy)-5-methylbenzene-1,2-diol] | no inhibitory effect | > 100 | – | > 100 | > 100 | > 100 | > 100 | > 100 | > 100 | 19.4 | IC50 ([8]; Hs27 host cells, 48 h treatment, 3H-uracil incorporation, read-out: IC50 against T. gondii strain ME49 (proliferation)): 22.2 µM
7 | COc1cc(OC)c2c(O)c3c(c(-c4c5c(c(O)c6c(OC)cc(OC)cc46)CO[C@@H](C)[C@H]5OC(C)=O)c2c1)C(O)[C@@H](C)OC3 (stereo partly shown) [E, ES-242-3] | – | > 100 | – | 100 (≈ 62.1 µg/mL) | > 100 | > 100 | 16.9 | 13 | 21.9 | 18 | Mean IC50 HEK-293 [1, 16]: moderate cytotoxic activity; Mean IC50 Huh-7 [2, 16]: moderate cytotoxic activity; Mean IC50 THP1 [7, 16]: moderate cytotoxic activity; IC50 [9, 19]: 13.2 µM
8 | COc1cc(C)c(Oc2cc(C)cc(O)c2O)c(O)c1 [Compound A, NK-A 17e233] | no inhibitory effect | > 100 | – | > 100 | > 100 | > 100 | > 100 | > 100 | > 100 | 5.75 | –
9 | CCc1nc(N)nc(N)c1-c1ccc(Cl)cc1 [pyrimethamine, reference compound] | – | 44 | 0.06 | – | – | – | – | – | – | – | –
